Reference: the NIST ThermoML archive (doi:10.1016/j.jct.2016.02.017)

Test: Boiling temperature at pressure P
Details: Liquid, Ebulliometric method (Recirculating still)

O [water]
Details	Boiling temperature at pressure P [°C]
12.1 kPa	50.7
25.8 kPa	67.2
41.8 kPa	78.7
59.7 kPa	85.5
74.1 kPa	91.2
91.8 kPa	97.7
